Data as given in US10273237B2, “Imidazopyridazine compounds useful as modulators of IL-12, IL-23 and/or IFN-α responses” (BRISTOL-MYERS SQUIBB COMPANY, priority 2013, dated 2019).
Values joined by “and” are separate entries in the source; they are usually repeats but may differ in a detail not shown here. Equal entries are not always repeated. Where two headings read alike, the source gives them in different places.

Experiments:
[1] = test system: IL-23-stimulated Kit225 T cells with STAT-dependent luciferase reporter; experiment: Kit225 T cell assay, STAT-dependent luciferase reporter, IL-23 stimulated; assay type: cell-based, human; settings: read-out: IL-23 Kit225 Reporter, LE (IC50)
Summary of the method: (§1)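 Kit225 T cells carrying a stably integrated STAT-dependent luciferase reporter, in RPMI with 10% heat-inactivated FBS, stimulated with 20 ng/mL human recombinant IL-23 or 200 U/mL human recombinant IFNα for 5-6 h. Luciferase expression read by Steady-Glo luminescence.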

[2] = test system: IFNα-stimulated Kit225 T cells with STAT-dependent luciferase reporter; experiment: Kit225 T cell assay, STAT-dependent luciferase reporter, IFNα stimulated; assay type: cell-based, human; settings: 5-6 hours, read-out: IFNa Kit225 Reporter, LE (IC50)
Summary of the method: as §1

[3] = target: T1, His-tagged protein corresponding to amino acids 575-869 of human Tyk2 (Homo sapiens, UniProt P29597); experiment: Probe displacement assay (scintillation proximity, radiolabeled probe); assay type: binding; settings: 2.5 nM Tyk2 (575-869), 40 nM [3H] probe, 30 minutes at room temperature
T1 construct: made in house
T1 sequence (P29597 with tags, fused parts or gaps): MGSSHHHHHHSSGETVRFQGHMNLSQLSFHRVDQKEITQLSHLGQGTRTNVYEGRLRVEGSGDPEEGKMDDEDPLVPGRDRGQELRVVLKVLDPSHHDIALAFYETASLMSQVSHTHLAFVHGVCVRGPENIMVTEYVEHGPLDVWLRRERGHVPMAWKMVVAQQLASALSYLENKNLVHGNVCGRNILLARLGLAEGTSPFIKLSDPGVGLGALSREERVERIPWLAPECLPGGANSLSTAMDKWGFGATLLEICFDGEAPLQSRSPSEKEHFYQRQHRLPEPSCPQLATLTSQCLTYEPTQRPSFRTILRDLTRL
Protocol: The preparation of radiolabeled probe, (R)—N-(1-(3-(8-methyl-5-(methylamino)-8H-imidazo[4,5-d]thiazolo[5,4-b]pyridin-2-yl)phenyl)ethyl)-2-([^3H]methylsulfonyl)benzamide, was performed as described below: […]

[4] = Homo sapiens, KIT225, 20 ng/mL human recombinant IL-23, 5-6 hours
[5] = Homo sapiens, KIT225, 200 U/mL human recombinant IFNα
[6] = 200 U/mL human recombinant IFNα
[7] = 20 ng/mL human recombinant IL-23, 5-6 hours

IC50 [1, 4]	IC50 [2, 5]	EC50 [3]	IC50 [2, 6]	IC50 [1, 7]	SMILES
240 nM	70 nM	8 nM			CNc1cc(Nc2cccn(C3(C)CC3)c2=O)nn2c(C(=O)NCC(C)(C)CO)cnc12 [Example 163]
180 nM	160 nM	13 nM			CNc1cc(Nc2cccn(-c3cccnn3)c2=O)nn2c(C(=O)NC(C)C)cnc12 [Example 106]
430 nM	200 nM	19 nM			CNc1cc(Nc2cccn(-c3ccc(C(F)(F)F)cc3)c2=O)nn2c(C(=O)NCC3(CO)CC3)cnc12 [Example 133]
340 nM	110 nM	5 nM			CNc1cc(Nc2cccn(-c3cccc(C(C)O)n3)c2=O)nn2c(C(=O)NC3CC3)cnc12 (stereo not shown) [Example 85]
30 nM	30 nM	6 nM			CNc1cc(Nc2cccn(-c3cccc(C(C)O)n3)c2=O)nn2c(C(=O)NC3CCC3)cnc12 (stereo not shown) [Example 86]
	180 nM	15 nM and 22 nM	260 nM		CNc1cc(Nc2cccn(C)c2=O)nn2c(C(=O)NCC(C)(C)C)cnc12 [Example 207]
140 nM	170 nM	12 nM			CNc1cc(Nc2cccn(-c3ccccn3)c2=O)nn2c(C(=O)NCCF)cnc12 [Example 101]
360 nM	490 nM	57 nM			CNc1cc(Nc2cccn(C)c2=O)nn2c(C(=O)NC(C)(C)C)cnc12 [Example 211]
270 nM	150 nM	18 nM			CNc1cc(Nc2cc(F)cn(CCOC)c2=O)nn2c(C(=O)NC3CC3)cnc12 [Example 118]
170 nM	110 nM	9 nM			CC[C@@H](C)NC(=O)c1cnc2c(NC)cc(Nc3cccn(-c4ccccn4)c3=O)nn12 [Example 74]
90 nM	30 nM	12 nM			CNc1cc(Nc2cc(F)cn(-c3ccc(C)nn3)c2=O)nn2c(C(=O)NC3CCC3)cnc12 [Example 93]
140 nM	30 nM	6 nM			CC[C@@H](C)NC(=O)c1cnc2c(NC)cc(Nc3cccn(-c4ccn(C)n4)c3=O)nn12 [Example 79]
210 nM	180 nM	20 nM			CNc1cc(Nc2cccn(-c3cccc(F)n3)c2=O)nn2c(C(=O)N[C@@H]3CCOC3)cnc12 [Example 61]
260 nM	290 nM	23 nM			CNc1cc(Nc2cccn(-c3ccccn3)c2=O)nn2c(C(=O)NCc3nccs3)cnc12 [Example 190]
60 nM	60 nM	16 nM			CNc1cc(Nc2cccn(-c3ccccn3)c2=O)nn2c(C(=O)NCC(C)(C)CO)cnc12 [Example 197]
400 nM	320 nM	14 nM			CNc1cc(Nc2cccn(-c3ccc(C(F)(F)F)cc3)c2=O)nn2c(C(=O)NCC(C)(CO)CO)cnc12 [Example 132]
190 nM	150 nM	14 nM			CNc1cc(Nc2cccn(-c3ccc(N4CCOCC4)cc3)c2=O)nn2c(C(=O)NC3(C#N)CC3)cnc12 [Example 140]
300 nM	190 nM	8 nM			CNc1cc(Nc2cccn(-c3cccc(C#N)c3)c2=O)nn2c(C(=O)NC3CC3)cnc12 [Example 126]
220 nM	80 nM	27 nM			CNc1cc(Nc2cccn(-c3ccccn3)c2=O)nn2c(C(=O)NC3CC3)cnc12 [Example 32]
200 nM	100 nM	16 nM			CNc1cc(Nc2cccn(-c3ccc(C#N)cc3)c2=O)nn2c(C(=O)NCC(C)(C)CO)cnc12 [Example 25]
140 nM	110 nM	7 nM			CNc1cc(Nc2cccn(-c3ccc(C)nn3)c2=O)nn2c(C(=O)NC3CC3)cnc12 [Example 63]
30 nM	20 nM	7 nM			CNc1cc(Nc2cccn(-c3cc(C)n(C)n3)c2=O)nn2c(C(=O)NC3CCC3)cnc12 [Example 155]
220 nM	380 nM	29 nM			CCC(CC)CNC(=O)c1cnc2c(NC)cc(Nc3cccn(-c4ccccc4)c3=O)nn12 [Example 187]
70 nM	140 nM	15 nM			CNc1cc(Nc2cccn(-c3cnc(C)cn3)c2=O)nn2c(C(=O)NCC(C)(C)CO)cnc12 [Example 6, N-(3-Hydroxy-2,2-dimethylpropyl)-8-(methylamino)-6-((1-(5-methylpyrazin-2-yl)-2-oxo-1,2-dihydropyridin-3-yl)amino)imidazo[1,2-b]pyridazine-3-carboxamide]
200 nM	120 nM	2 nM			CNc1cc(Nc2cccn(-c3ncc(C)cn3)c2=O)nn2c(C(=O)N[C@@H]3C[C@@H]3F)cnc12 [Example 83]
			80 nM	200 nM	CNc1cc(Nc2cccn(-c3cccnn3)c2=O)nn2c(C(=O)NC3CCC3)cnc12 [Example 104]
			150 nM	230 nM	CNc1cc(Nc2cc(C)cn(-c3ccc(C)nn3)c2=O)nn2c(C(=O)NC3CC3)cnc12 [Example 91]

IC50 [1, 4]	IC50 [2, 5]	EC50 [3]	IC50 [2, 6]	IC50 [1, 7]	SMILES
			970 nM	90 nM	CNc1cc(Nc2cccn(C)c2=O)nn2c(C(=O)N[C@H]3CCOC3)cnc12 [Example 58]
			440 nM	460 nM	CCC(C)NC(=O)c1cnc2c(NC)cc(Nc3cccn(C)c3=O)nn12 (single isomer, unassigned) [Example 72]
10 nM	10 nM				CCOc1ccc(-n2cccc(Nc3cc(NC)c4ncc(C(=O)N[C@@H]5C[C@@H]5F)n4n3)c2=O)nn1 [compound 260]
			110 nM	590 nM	CNc1cc(Nc2cc(Cl)cn(C)c2=O)nn2c(C(=O)NC3(C#N)CCC3)cnc12 [Example 43]
			130 nM	190 nM	CCC(C)NC(=O)c1cnc2c(NC)cc(Nc3cccn(-c4ccc(C)nn4)c3=O)nn12 (single isomer, unassigned) [Example 75]
			50 nM	150 nM	CNc1cc(Nc2cc(Cl)cn(C)c2=O)nn2c(C(=O)NC3CC3)cnc12 [Example 22]
			190 nM	250 nM	CNc1cc(Nc2cccn(-c3ccc(N4CCOCC4)cc3)c2=O)nn2c(C(=O)NC3CC3)cnc12 [Example 139]
			260 nM	110 nM	CNc1cc(Nc2cccn(-c3ccc(C)nn3)c2=O)nn2c(C(=O)NCC(C)C)cnc12 [Example 200]
		4 nM			CNc1cc(Nc2cccn(-c3cnccn3)c2=O)nn2c(C(=O)NCC(C)(C)CO)cnc12 [Example 109]
			4270 nM	3860 nM	CNc1cc(Nc2nccn(C)c2=O)nn2c(C(=O)NC3CCC3)cnc12 [Example 84]
120 nM	110 nM				CNc1cc(Nc2cccn(-c3ccc(C(=O)N(C)C)cc3)c2=O)nn2c(C(=O)N[C@@H]3C[C@@H]3F)cnc12 [compound 266]
			80 nM	210 nM	CNc1cc(Nc2cccn(-c3ccn(C)n3)c2=O)nn2c(C(=O)NC(C)C)cnc12 [Example 108]
			110 nM	310 nM	CNc1cc(Nc2cccn(-c3ncc(C(F)(F)F)cn3)c2=O)nn2c(C(=O)NC3CC3)cnc12 [Example 175]
			50 nM	50 nM	CNc1cc(Nc2cccn(-c3ncc(F)cn3)c2=O)nn2c(C(=O)NC3CCC3)cnc12 [Example 173]
			260 nM	280 nM	CNc1cc(Nc2cccn(-c3ccc(F)cn3)c2=O)nn2c(C(=O)NCC(C)(C)CO)cnc12 [Example 33]
			140 nM	500 nM	CNc1cc(Nc2cccn(C3CCOC3)c2=O)nn2c(C(=O)NC3CCC3)cnc12 (stereo not shown) [Example 221]
10 nM	20 nM				CNc1cc(Nc2cccn(-c3ccc(OC)nn3)c2=O)nn2c(C(=O)N[C@@H]3C[C@@H]3F)cnc12 [compound 261]
			50 nM	290 nM	CNc1cc(Nc2cccn(-c3ccn(C4CC4)n3)c2=O)nn2c(C(=O)NC3CCC3)cnc12 [Example 166]
			440 nM	900 nM	CNc1cc(Nc2cccn(C(C)C)c2=O)nn2c(C(=O)NC3(C#N)CC3)cnc12 [Example 216]
			20 nM	50 nM	CNc1cc(Nc2cccn(-c3ccn(C4CC4)n3)c2=O)nn2c(C(=O)N[C@@H]3C[C@@H]3F)cnc12 [Example 164]
			30 nM	100 nM	CNc1cc(Nc2cccn(C3CCC(N4CCOCC4)CC3)c2=O)nn2c(C(=O)NC3CCC3)cnc12 (stereo not shown) [Example 225]
			20 nM	40 nM	CNc1cc(Nc2cccn(-c3ccccc3)c2=O)nn2c(C(=O)N[C@@H]3C[C@@H]3F)cnc12 [Example 191]
			350 nM	290 nM	CCc1ccc(-n2cccc(Nc3cc(NC)c4ncc(C(=O)N[C@@H]5C[C@@H]5F)n4n3)c2=O)nn1 [Example 181]
			2480 nM	110 nM	CNc1cc(Nc2cccn(C)c2=O)nn2c(C(=O)Nc3ccccc3)cnc12 [Example 212]
			180 nM	90 nM	CCNC(=O)c1cnc2c(NC)cc(Nc3cccn(-c4ccccn4)c3=O)nn12 [Example 66]
			40 nM	110 nM	CNc1cc(Nc2cccn(-c3cccc(C)n3)c2=O)nn2c(C(=O)NC3CCC3)cnc12 [Example 47]
